Patent US11597962B2, “Rapid selective detection of bacteria” (priority 2017, dated 2023)
Positions of bridges follow the written chain, without caps; N, C: chain ends. No end group written: not given here.

Columns and labels:
B. cereus ATCC 14579 = test: Selectivity of the biosensor assay, B. cereus; format: binding, Bacillus cereus; settings: 10^4 cells/10 μL; control 12000±2000
Description: (§1) The selectivity of the biosensor assay was tested with three L. monocytogenes strains (ATCC 43256, ATCC 19116, and Pat Type 1), B. cereus ATCC 14579, S. aureus ATCC 29213, S. enterica, and E. coli DHα. Water (no bacteria) was used as a control. Another control used was with a negative peptide (24-mer) spot, and L. monocytogenes 19116 was used. The biosensor assay was performed as described above.

[1] = system: S. enterica Serovar Enteritidis; test: Selectivity of the biosensor assay, S. enterica; format: binding, Salmonella enterica; settings: 10^4 cells/10 μL; one value for both Gram-negative bacteria; control 12000±2000
Description: as §1

L. monocytogenes Type I = test: Bioactivity agar plate assay (zone of inhibition); format: cell-based, Listeria monocytogenes; settings: peptide 2.3, 0.23, 0.023 mM, 10 μL spots; 37° C., 24 hours
Description: Bioactivity. LeuA and negative peptide were checked for activity using agar plate inoculated with L. monocytogenes Type I. Briefly, a TSB agar plate was spotted with different concentrations of peptide (2.3, 0.23, and 0.023 mM, dissolved in water) with a spot volume of 10 μL. Then the 6 mL soft agar inoculated with 60 μL L. monocytogenes (overnight culture, undiluted) was plated over the TSB agar. The plate was incubated at 37° C. and zone of inhibition was checked after 24 hours.

E. coli DHα = test: Selectivity of the biosensor assay, E. coli; format: binding, Escherichia coli; settings: 10^4 cells/10 μL; one value for both Gram-negative bacteria; control 12000±2000
Description: as §1

[2] = system: L. monocytogenes strains (ATCC 43256, ATCC 19116, and Pat Type 1); test: Selectivity of the biosensor assay, Listeria strains; format: binding, Listeria monocytogenes; settings: 10^4 cells/10 μL; control sample (water) 12000±2000
Description: as §1

[3] = system: Listeria innocua ATCC 33091; test: Detection of bacteria using AuNC on LeuA-conjugated PVDF membrane; format: binding; settings: 5000 cfu in 500 μL water; baseline without bacteria 3880
Excerpt: Detection of bacteria using AuNC on membrane. A low-fluorescence polyvinylidene difluoride (PVDF) membrane (Thermo Scientific) was cut into 3 small circular pieces (˜0.75 cm radius). The circular membrane was placed on a membrane holder which was connected to a side arm Erlenmeyer flask with vacuum. Each membrane was first washed with copious amount of water by allowing water to filter through the membrane using a gentle vacuum. Membranes 1 and 2 were then conjugated with peptide LeuA by delivering 100 μL peptide solution (0.012 mM). The peptide was allowed to bind the membrane for ˜20 minutes and then excess, unbound peptide was removed by vacuum. Next, the peptide-conjugated membranes were exposed to samples with bacteria (5000 cfu Listeria innocua ATCC 33091 in 500 μL water; membrane 1) or without bacteria (500 μL water; membrane 2). […] Excess AuNC was removed by vacuum and the membrane was allowed to dry for ˜15-20 mins before fluorescence imaging. The fluorescence of each membrane was read using BioRad Imager (FIG. 12). […] The fluorescence for the peptide-conjugated membrane alone (no bacteria; membrane 2) could be due to the binding of AuNC to the peptide. This represents baseline fluorescence (3880) and any increase in fluorescence from baseline represents the presence of bacteria as shown in FIG. 12. […]

[4] = system: L. monocytogenes ATCC 19116; test: LeuA-conjugated PVDF membrane assay: sample volumes and limit of detection; format: binding, Listeria monocytogenes
Description: Detection of L. monocytogenes from different sample volumes. Six circular membranes conjugated with peptide LeuA were prepared as described above. Peptide-conjugated membranes were exposed to three samples of different volumes (500 μL, 1 mL, and 5 mL) each containing same number of L. monocytogenes ATCC 19116 (2000 cfu). Membranes were also exposed to samples (water) with no bacteria (500 μL, 1 mL, and 5 mL) to serve as controls. After passing the samples through the membranes, all membranes were reacted with AuNC (500 μL, 100 μL stock diluted to 500 μL with water) to label the bound bacteria. Excess AuNC from each membrane was removed by vacuum and the membrane was allowed to dry for ˜15-20 mins before fluorescence imaging. The fluorescence of each membrane was read using a BioRad Imager. […] The increase in fluorescence was calculated using the following equation. [formula] Estimation of the limit of detection for L. monocytogenes. Four circular membranes conjugated with peptide LeuA were prepared as described above. The membranes were exposed to samples (500 μL) containing different numbers of L. monocytogenes ATCC 19116 (0, 200, 2000, or 20000 CFU). The rest of the assay was performed as described above.

[5] = system: L. monocytogenes ATCC 19116; test: Glass biosensor assay: peptide concentration optimization and limit of detection; format: binding, Listeria monocytogenes
Description: Optimization of peptide concentration. The bio-sensor was optimized by testing different LeuA concentrations. The slide was spotted with 10 μL of varying peptide concentrations (0, 0.013, 0.025, 0.064, or 0.13 mM). The peptide spot was allowed to air dry for 20 min. Next, bacteria (L. monocytogenes ATCC 19116) was spotted at a constant concentration (10 μL, 10^4 cfu). After drying, the slides were dipped in MilIQ water for 10 seconds. Lastly AuNC (12 μl) was spotted to quantify the fluorescence intensity of the spots.
Sensitivity and selectivity of the biosensor. To obtain the limit of detection (LOD), the biosensor assay was performed with varying number of bacteria in 10 μL sample. An overnight culture of L. monocytogenes ATCC 19116 was diluted to obtain samples with 0, 200, 1000, 2000, and 10000 cfu/10 μL. A glass slide was prepared with peptide spots (Leu A, 0.13 mM, 10 μL) as descried above and bacteria (10 μL) were spotted on the peptide spot followed by AuNC labeling and fluorescence recording using Chemidoc imager.

L. monocytogenes 19116 = test: Detection of Listeria monocytogenes in spiked milk sample (glass biosensor); format: binding; settings: whole milk (3.5% fat) diluted with water, 10^3 cells/μL
Description: Detection of Listeria monocytogenes in spiked milk sample. A spiked milk sample was prepared using milk (3.5% fat, 1 mL) diluted with water (9 mL). L. monocytogenes 19116 was added to the diluted milk to obtain a bacterial concentration of 10^4 cfu/10 μL. Water was used as a control. The biosensor assay was performed on the spiked milk sample as described above.

S. aureus ATCC 13565 = settings: observed previously; cited from earlier work
S. aureus ATCC 29213 = test: Selectivity of the biosensor assay, S. aureus; format: binding, Staphylococcus aureus; settings: 10^4 cells/10 μL; control 12000±2000
Description: as §1

L. monocytogenes species = settings: against L. monocytogenes species; cited from earlier work
[6] = system: L. monocytogenes ATCC 43256; test: Detecting L. monocytogenes using AuNC on LeuA-spotted glass surface; format: binding, Listeria monocytogenes; settings: Leu A 10 μL 0.13 mM, 10^4 cells, AuNC 12 μL; AuNC alone 31860±11608, peptide + AuNC without bacteria 34352±1812
Description: Detecting L. monocytogenes using AuNC on glass surface. An aqueous solution of Leu A (10 μL, 0.13 mM) was spotted on a glass slide (˜4 mm diameter) in triplicate. The peptide spots were allowed to air dry (˜20 min). This was followed by spotting bacteria L. monocytogenes ATCC 43256 (10 μL, 10^4 cells) or no bacteria (10 μL water) on top of the peptide spot. The glass slide was then dipped in MilIQ water for 10 seconds to remove all non-bound bacteria. The slide was allowed to air dry and finally AuNC (12 μL) was deposited on each spot. AuNC (12 μL) alone was also spotted as a control. The mean fluorescence intensity was recorded using Chemidoc imager. The experiment was repeated three times.

Substance: Leucocin A (KYYGNGVHCTKSGCSVNWGEAFSAGVHRLANGGNGFW-OH; disulfide 9-14 (inferred)) [LeuA]
- fluorescence of AuNC-labeled bound bacteria (B. cereus ATCC 14579): 13000±1600
- fluorescence of AuNC-labeled bound bacteria [1]: 12000±800
- activity in bioactivity plate assay (zone of inhibition) (L. monocytogenes Type I): active
- fluorescence of AuNC-labeled bound bacteria (E. coli DHα): 12000±800
- fluorescence of AuNC-labeled bound bacteria [2]: 28000-33000
- fluorescence of membrane [3]: 7776
- percent increase in fluorescence ([4]; 200 cfu in 500 μL): 11.7%
- percent increase in fluorescence ([4]; 2000 cfu in 500 μL): 15.9%
- percent (%) increase in fluorescence ([4]; 2000 cfu in 500 μL, 1 mL and 5 mL): 15-20%
- percent increase in fluorescence ([4]; 20000 cfu in 500 μL): 26.1%
- fluorescence of bound bacteria ([5]; 2000 cfu bacteria per spot): 31473±2932
- fluorescence of bound bacteria ([5]; 10000 cfu bacteria per spot): 30842±4696
- fluorescence of bound bacteria (highest) ([5]; peptide concentration 0.13 mM, 10 μL, bacteria 10^4 cfu/10 μL): 21275±2177
- fluorescence of spiked milk sample compared to the milk alone (L. monocytogenes 19116): significantly higher fluorescence
- binding of bacteria to peptide (S. aureus ATCC 13565): Low binding
- fluorescence of AuNC-labeled bound bacteria (S. aureus ATCC 29213): 18000±2100
- minimum inhibitory concentration (MIC) (L. monocytogenes species): low nanomolar range
- MFI of AuNC-labeled bacteria bound to peptide [6]: 62390±5975

Substance: negative control (20-mer) peptide: short sequence (20-mer; SEQ ID NO:2) derived from LeuA known not to bind L. monocytogenes (NGVHATKSGASVNWGEAFSA; Control Leucocin A fragment) [reference compound]
- activity in bioactivity plate assay (zone of inhibition) (L. monocytogenes Type I): inactive
- fluorescence of AuNC-labeled bound bacteria [2]: 12164±2937
